Test results published in patent publication US6627650B2, “Indenoindolone compounds” (Les Laboratoires Servier, priority 2001, dated 2003).
Structures can show the parent of a compound that is named as a salt. Where two headings read alike, the source gives them in different places.

How the values were obtained:
A-431 = experiment: In vitro cytotoxicity, microculture tetrazolium assay, A-431; assay type: cell-based, human; settings: read-out: IC50 A-431
Description: (§1) Five cell lines were used:
1 human epidermoid carcinoma, A-431.
(§2) The cells are cultured in RPMI 1640 complete culture medium comprising 10% fetal calf serum, 2 mM glutamine, 50 units/ml of penicillin, 50 μg/ml of streptomycin and 10 mM Hepes, pH 7.4. The cells are distributed on microplates and are exposed to the cytotoxic compounds. The cells are then incubated for four doubling periods (2 days: L1210, P388, or 4 days: A549, HT29, A-431). The number of viable cells is then quantified by a colorimetric assay, the microculture tetrazolium assay (Cancer Res. 1987, 47 939-942).
(§3) The results are expressed as IC50, the concentration of product that inhibits the proliferation of the treated cells by 50% compared with the untreated cells.

L1210 cells = experiment: Action on the cell cycle (L1210), flow cytometry; assay type: cell-based, murine; settings: concentration 0.25 μM, after 21 hours (control: 20%)
Description: L1210 cells are incubated for 21 hours at 37° C. in the presence of various concentrations of compound tested. The cells are then fixed using 70% ethanol (v/v), washed twice in PBS and incubated for 30 minutes at 20° C. in PBS that contains 100 μg/ml of RNAse and 50 μg/ml of propidium iodide. The distribution of the cells in the various phases of the cell cycle are then analysed by flow cytometry. The results are expressed as a percentage of the cells that have accumulated in the G2+M phase after 21 hours compared with the control (control: 20%). By way of example, at a concentration of 0.25 μM the compounds of Examples 1 and 18 induce a 75% accumulation of the cells in the G2+M phase after 21 hours.

A549 = experiment: In vitro cytotoxicity, microculture tetrazolium assay, A549; assay type: cell-based, human; settings: read-out: IC50 A549
Description: as §1
1 non-small-cell human lung carcinoma, A549.
as §2, §3

HT29 = experiment: In vitro cytotoxicity, microculture tetrazolium assay, HT29; assay type: cell-based, human; settings: HT-29, 96 h, read-out: IC50 HT29
Description: as §1
1 human colon carcinoma, HT29.
as §2, §3

C38 colon carcinoma = experiment: In vivo anti-tumour activity on established C38 colon carcinoma; settings: from a dose of 25 mg/kg, i.v. once a week for 3 weeks (days 10, 17 and 24), B6D2F1 mice, subcutaneous C38
Description: Fragments of C38 colon carcinoma weighing approximately 30 mg were grafted subcutaneously on day 0 onto B6D2F1 mice (Iffa Credo, France). After growth of the tumour, the mice were separated into control (18 animals) and treated (6 to 7 animals) groups, which were homogeneous in respect of the tumour size. The products were administered by the i.v. route once a week for 3 weeks (on days 10, 17 and 24) at their maximum tolerated dose (MTD), MTD/2 and MTD/4.
The tumours were measured twice per week and the tumour volumes were calculated according to the formula: volume (mm^3)=length (mm)×width^2 (mm^2)/2.
The anti-tumour activity is expressed as % T/C: [formula]
VO and Vt denoting, respectively, the initial volume of the tumour and its volume at the time of measurement t.
The optimum dose is the dose that yields the lowest T/C without toxicity (premature death or loss of weight greater than 20%).

L1210 = experiment: In vitro cytotoxicity, microculture tetrazolium assay, L1210; assay type: cell-based; settings: Mus musculus, 48 h; L1210 murine leukaemia, 2 days incubation, inhibition of proliferation
Description: as §1, §2, §3

P388 = experiment: In vitro cytotoxicity, microculture tetrazolium assay, P388; assay type: cell-based; settings: Mus musculus, 48 h; P388 murine leukaemia, 2 days incubation, inhibition of proliferation
Description: as §1, §2, §3

| Compound | IC50 (A-431; Homo sapiens, A-431, 96 h) | accumulation of the cells in the G2+M phase (L1210 cells) | IC50 (A549; Homo sapiens, A549, 96 h) | IC50 (HT29; Homo sapiens) | IC50 (A-431; 96 h, A-431 human epidermoid carcinoma, 4 days incubation) | T/C (tumour volume) (C38 colon carcinoma) | IC50 (A549; 96 h, A549 non-small-cell human lung carcinoma, 4 days incubation) | IC50 (HT29; HT29 human colon carcinoma, 4 days incubation) | IC50 (L1210) | IC50 (P388) |
| --- | --- | --- | --- | --- | --- | --- | --- | --- | --- | --- |
| C#CC(O/N=C1/c2cc(OC)c(OC)cc2-c2[nH]c3ccc(OCCN(C)C)cc3c21)c1ccccc1 (centres unmarked) [Example 1, (10Z)-8-(2-Dimethylaminoethoxy)-2,3-dimethoxyindeno[1,2-b]indole-10(5H)-one O-(1-Phenyl-2-Propynyl)oxime Hydrochloride] | 87 nM | 75% | 71 nM | 248 nM |  |  |  |  |  |  |
| C#CCO/N=C1/c2cc(OC)c(OC)cc2-c2[nH]c3ccc(OCCN(C)C)cc3c21.Cl [Example 18, (10Z)-8-(2-Dimethylaminoethoxy)-2,3-dimethoxyindeno[1,2-b]indole-10(5H)-one O-(2-Propynyl)oxime Hydrochloride] |  | 75% |  |  | 174 nM | 24% | 101 nM | 181 nM | 104 nM | 241 nM |
